Results taken from US20140341895A1, “PSEUDOMONAS AERUGINOSA OprM EPITOPES FOR USE IN DIAGNOSTICS AND THERAPEUTICS” (priority 2011, published 2014).
No end group written: not given here.

Tests used:
[1] = test system: P. aeruginosa strain MSC06120; settings: multidrug resistant P. aeruginosa strain MSC06120; stated as normal values; cited from earlier work
OprM outer loops = assay: rabbit immunization with KLH-conjugated OprM outer loop peptides, sera screened for immune reaction; format: in vivo; settings: NZW rabbits, 500 μg per injection subcutaneously on days 0, 21, 42, 63, 84, 105; sera screened for immune reaction to OprM outer loops
Procedure: Polyclonal antibodies were produced using each of the OprM outer loops (with surrounding amino acid residues) conjugated to KLH as immunogens. Rabbits were screened prior to antigen injection for background antibodies that recognize the OprM outer loop immunogens to be used (i.e., SEQ ID NOS:3 and 4). Pre-immune rabbit sera was assayed by ELISA for antibodies to the immunogen.
Eight NZW rabbits were immunized on days 0, 21, 42, 63, 84 and 105 subcutaneously with either KLH-conjugated OprM outer loop 1 (SEQ ID NO:3) or outer loop 2 (SEQ ID NO:4) peptides (500 μg per injection). The Day 0 injection was formulated with Titermax while all subsequent injections were formulated with Freund's incomplete adjuvant. The rabbits were bled on days 52 (5 ml serum obtained), 73 (20 ml serum obtained), 94 (20 ml serum obtained), 115 (20 ml serum obtained) and 118 (50 ml serum obtained).

[2] = molecular target: T1, OprM outer loop 1 (SEQ ID NO:3) (Pseudomonas aeruginosa, UniProt Q51487); assay: ELISA of immunized rabbit sera, antigen outer loop 1 peptide; format: binding; settings: antigen SEQ ID NO:3; four rabbits per immunogen; FIG. 1 and 2
T1 construct: made in house; host or cells: chemical peptide synthesis
T1 sequence (Q51487 whole entry, looked up): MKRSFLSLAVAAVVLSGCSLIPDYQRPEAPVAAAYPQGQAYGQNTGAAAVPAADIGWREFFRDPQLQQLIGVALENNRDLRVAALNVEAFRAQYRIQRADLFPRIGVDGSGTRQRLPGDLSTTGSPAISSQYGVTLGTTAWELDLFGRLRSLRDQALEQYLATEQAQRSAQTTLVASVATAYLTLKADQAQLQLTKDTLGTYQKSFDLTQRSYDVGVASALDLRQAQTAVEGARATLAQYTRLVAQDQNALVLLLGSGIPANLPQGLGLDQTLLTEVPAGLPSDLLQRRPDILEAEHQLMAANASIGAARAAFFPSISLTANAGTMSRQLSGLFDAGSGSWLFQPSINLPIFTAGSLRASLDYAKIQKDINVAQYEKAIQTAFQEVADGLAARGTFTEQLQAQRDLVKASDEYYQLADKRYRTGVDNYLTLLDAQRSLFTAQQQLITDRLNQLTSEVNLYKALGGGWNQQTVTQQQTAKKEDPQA
Procedure: (§1) Sera was assayed by ELISA to measure the amount of anti-OprM antibodies that were induced by the immunization. Purified peptide from either outer loop 1 or outer loop 2 was plated each well of a 96-well plate. A solution of PBS+3% BSA was used for non-specific blocking and sample/control/secondary antibody dilutions. The sample serum was run against a negative control (normal sera) and a positive control (anti-ovalbumin). The signal was detected using HRP conjugated anti-rabbit secondary antibodies and ABTS peroxidase substrate system. The plates were read at a wavelength of 415 nm with a reference at 570 nm.

[3] = molecular target: T2, OprM outer loop 2 (SEQ ID NO:4) (Pseudomonas aeruginosa, UniProt Q51487); assay: ELISA of immunized rabbit sera, antigen outer loop 2 peptide; format: binding; settings: antigen SEQ ID NO:4; four rabbits per immunogen; FIG. 1 and 2
T2 construct: made in house; host or cells: chemical peptide synthesis
T2 sequence (Q51487 whole entry, looked up): T1 sequence (Q51487 whole entry, looked up)
Procedure: as §1

Compound	growth inhibitory concentration [1] [µg/mL]	immune response in immunized rabbits (OprM outer loops)	antibodies in sera binding to peptide containing outer loop 1 (titer / cross-reactivity), ELISA [2]	antibodies in sera binding to peptide containing outer loop 2 (titer / cross-reactivity), ELISA [3]
NCC[C@H](O)C(=O)N[C@@H]1C[C@H](N)[C@@H](O[C@H]2O[C@H](CN)[C@@H](O)[C@H](O)[C@H]2O)[C@H](O)[C@H]1O[C@H]1O[C@H](CO)[C@@H](O)[C@H](N)[C@H]1O [amikacin]	64	–	–	–
O=C(O)c1cn(C2CC2)c2cc(N3CCNCC3)c(F)cc2c1=O [ciprofloxacin]	> 256	–	–	–
KLH-conjugated OprM outer loop 1 (SEQ ID NO:3): OprM outer loop 1 peptide with surrounding residues (SEQ ID NO:3), N-terminal CKK added, conjugated to keyhole limpet hemocyanin carrier (CKKRLPGDLSTTGSPA; also: conjugated to KLH carrier, site not given here; listed as Pseudomonas aeruginosa)	–	generated an immune response	high titer	1 rabbit showed a small amount of cross-reactivity
outer loop 2 (SEQ ID NO:4): OprM outer loop 2 peptide with surrounding residues (SEQ ID NO:4), N-terminal CKK added, conjugated to keyhole limpet hemocyanin carrier (CKKSRQLSGLFDAGSG; also: conjugated to KLH carrier, site not given here; listed as Pseudomonas aeruginosa)	–	generated an immune response	2 rabbits showed a small amount of cross-reactivity	high titer
